The text below walks through data of patent US10112937B2, “P2X7 modulators and methods of use” (Janssen Pharmaceutica NV, priority 2013, dated 2018).

Holding throughout (assay type): cell-based
Assay [1] deals with rat P2X7 (Rattus norvegicus (Rat), UniProt Q64663). Kind of assay: Ca2+ flux (FLIPR) in 1321N1 cells expressing recombinant rat P2X7. (In general: Calcium flux is commonly read through the fluorescence of an indicator in the cells.)
Assay [2] deals with T1, human P2X7 (Homo sapiens (Human), UniProt Q99572). Kind of assay: P2X7 antagonism in human PBMCs (IL-1β release after LPS + Bz-ATP, ELISA). As to conditions: human PBMCs; for PBMC 1 μM (% control): test compound 1 μM. (An ELISA detects its analyte on a solid surface through an enzyme-linked reagent.)
The target of assay [3] is T1, human P2X7. Kind of assay: Ca2+ flux (FLIPR) in 1321N1 cells expressing recombinant human P2X7.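 Also: cells loaded with Calcium-4 dye, preincubated with test compound for 30 min, fluorescence change read 180 s after agonist addition.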
Description: P2X7 Antagonism in Recombinant Human P2X7 Cells or Recombinant Rat P2X7 Cells: (a) Ca^2+ Flux and (b) Radioligand Binding
1321N1 cells expressing the recombinant human or rat P2X7 channel was cultured in HyQ DME/(HyClone/Dulbecco's Modified Eagle Medium) high glucose supplemented with 10% Fetal Bovine Serum (FBS) and appropriate selection marker. Cells were seeded at a density of 25000 cells/well (96-well clear bottom black walled plates) in 100 μl volume/well. On the day of the experiment, cell plates were washed with assay buffer, containing (in mM): 130 NaCl, 2 KCl, 1 CaCl2, 1 MgCl2, 10 HEPES, 5 glucose; pH 7.40 and 300 mOs. After the wash, cells were loaded with the Calcium-4 dye (Molecular Device) and incubated in the dark for 60 minutes. Test compounds were prepared at 250× the test concentration in neat DMSO. Intermediate 96-well compound plates were prepared by transferring 1.2 μL of the compound into 300 μL of assay buffer. A further 3× dilution occurred when transferring 50 μL/well of the compound plate to 100 μL/well in the cell plate. Cells were incubated with test compounds and dye for 30 minutes. […] The fluorescence change was measured 180 seconds after adding the agonist.
The mark [4] stands for this setting: 1321N1 cells, recombinant rat P2X7, 250 μM BzATP.
[5] abbreviates: 1321N1 cells, recombinant human P2X7, 250 μM BzATP.
Where [6] appears, read: Ca2+ flux, 250 μM BzATP, rat P2X7 1321N1 cells.
The mark [7] stands for this setting: 10 μM test compound, LPS + Bz-ATP.
The mark [8] stands for this setting: Ca2+ flux, 250 μM BzATP, human P2X7 1321N1 cells.

T1 sequence (Q99572 whole entry): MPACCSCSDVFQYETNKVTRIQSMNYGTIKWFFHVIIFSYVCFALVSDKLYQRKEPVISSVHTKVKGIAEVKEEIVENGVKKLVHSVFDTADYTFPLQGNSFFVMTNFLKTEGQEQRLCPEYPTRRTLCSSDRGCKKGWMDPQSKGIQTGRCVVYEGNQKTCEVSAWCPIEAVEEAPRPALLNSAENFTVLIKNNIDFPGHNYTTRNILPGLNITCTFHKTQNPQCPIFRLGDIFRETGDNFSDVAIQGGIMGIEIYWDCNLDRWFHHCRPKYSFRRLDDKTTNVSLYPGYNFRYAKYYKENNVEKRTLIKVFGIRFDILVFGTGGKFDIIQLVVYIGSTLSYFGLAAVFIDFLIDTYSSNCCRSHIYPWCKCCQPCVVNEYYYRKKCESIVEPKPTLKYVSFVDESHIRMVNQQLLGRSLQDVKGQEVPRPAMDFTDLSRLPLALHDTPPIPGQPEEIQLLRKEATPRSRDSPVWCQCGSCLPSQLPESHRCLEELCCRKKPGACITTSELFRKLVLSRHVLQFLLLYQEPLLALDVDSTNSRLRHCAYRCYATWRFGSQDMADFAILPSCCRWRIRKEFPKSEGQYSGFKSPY
rat P2X7, sequence (Q64663 whole entry): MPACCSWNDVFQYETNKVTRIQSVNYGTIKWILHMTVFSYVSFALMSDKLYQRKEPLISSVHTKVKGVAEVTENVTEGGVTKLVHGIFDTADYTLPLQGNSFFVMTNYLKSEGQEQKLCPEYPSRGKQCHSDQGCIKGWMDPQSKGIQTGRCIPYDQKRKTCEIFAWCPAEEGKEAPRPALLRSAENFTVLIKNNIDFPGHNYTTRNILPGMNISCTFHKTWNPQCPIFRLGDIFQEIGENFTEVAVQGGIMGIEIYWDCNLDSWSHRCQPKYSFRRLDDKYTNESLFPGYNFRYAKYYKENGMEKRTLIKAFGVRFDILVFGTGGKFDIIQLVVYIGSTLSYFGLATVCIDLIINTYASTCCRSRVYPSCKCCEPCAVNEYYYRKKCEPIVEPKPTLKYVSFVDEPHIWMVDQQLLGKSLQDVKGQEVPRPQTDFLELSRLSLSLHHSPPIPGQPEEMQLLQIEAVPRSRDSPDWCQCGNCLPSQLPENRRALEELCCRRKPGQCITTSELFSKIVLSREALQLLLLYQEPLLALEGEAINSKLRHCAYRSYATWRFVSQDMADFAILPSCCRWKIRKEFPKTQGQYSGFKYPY

In general, IC50 refers to the concentration at which inhibition is half-maximal. Take `Cc1cc(-n2nnc3c2CCN(C(=O)c2cc(Cl)cc(C(F)(F)F)c2)[C@H]3C)ncc1F` (single isomer, unassigned) [Example 363, (S*)-(3-chloro-5-(trifluoromethyl)phenyl)(1-(5-fluoro-4-methylpyridin-2-yl)-4-methyl-6,7-dihydro-1H-[1,2,3]triazolo[4,5-c]pyridin-5(4H)-yl)methanone]: the IC50 in assay [1] (setting [4]) and in assay [3] (setting [5]) was more than 10000 nM each time. Further, in assay [2] (test compound 10 μM), the “PBMC 10 μM (% control)” value is given as 63.9 % control.
As to `Cc1cc(-n2nnc3c2CCN(C(=O)c2ccnc(C(F)(F)F)c2Cl)[C@H]3C)ncc1F` (single isomer, unassigned) [Example 372, (S*)-(3-chloro-2-(trifluoromethyl)pyridin-4-yl)(1-(5-fluoro-4-methylpyridin-2-yl)-4-methyl-6,7-dihydro-1H-[1,2,3]triazolo[4,5-c]pyridin-5(4H)-yl)methanone], the half-inhibitory concentration (IC50) in assay [1] (setting [4]) is 8730 nM; in assay [3] (setting [5]), 1630 nM. In assay [2] (test compound 10 μM), the “PBMC 10 μM (% control)” value was 1.3 % control.
For `C[C@H]1Cc2c(nnn2-c2cc[nH]n2)CN1C(=O)c1ccnc(C(F)(F)F)c1Cl` (single isomer, unassigned) [Example 422, (S*)-(3-chloro-2-(trifluoromethyl)pyridin-4-yl)(6-methyl-1-(1H-pyrazol-3-yl)-6,7-dihydro-1H-[1,2,3]triazolo[4,5-c]pyridin-5(4H)-yl)methanone], the half-inhibitory concentration (IC50) was determined as 3.1 nM in assay [1] (setting [6]) and 14.4 nM in assay [3] (setting [8]). Further, the “PBMC 10 μM (% control)” value in assay [2] (setting [7]) was −9.6 % control.
For `C[C@H]1Cc2c(nnn2-c2cc[nH]n2)CN1C(=O)c1ccnc(C(F)(F)F)c1F` (single isomer, unassigned) [Example 424, (S*)-(3-fluoro-2-(trifluoromethyl)pyridin-4-yl)(6-methyl-1-(1H-pyrazol-3-yl)-6,7-dihydro-1H-[1,2,3]triazolo[4,5-c]pyridin-5(4H)-yl)methanone], in that order: 4.6 nM, 14 nM and −11.2 % control.
Consider `O=C(c1cccc(C(F)(F)F)c1Cl)N1CCc2c(ncn2-c2ccccc2)C1` [Example 2, (2-Chloro-3-(trifluoromethyl)phenyl)(1-phenyl-6,7-dihydro-1H-imidazo[4,5-c]pyridin-5(4H)-yl)methanone], for which the IC50 in assay [1] (setting [4]) was determined as 2910 nM; in assay [3] (setting [5]), 12.1 nM. In addition, in assay [2], the “PBMC 1 μM (% control)” value is 7.9 % control.
On to `CC(C)C1c2ncn(-c3cnccn3)c2CCN1C(=O)c1cccc(C(F)(F)F)c1Cl` (stereo not drawn) [Example 16, (2-Chloro-3-(trifluoromethyl)phenyl)(4-isopropyl-1-(pyrazin-2-yl)-6,7-dihydro-1H-imidazo[4,5-c]pyridin-5(4H)-yl)methanone], for which the IC50 came out at 257 nM in assay [1] (setting [4]) and 93.7 nM in assay [3] (setting [5]). In assay [2], the “PBMC 1 μM (% control)” value stood at 8.5 % control.
`CCOC(=O)C1c2ncn(-c3ccccn3)c2CCN1C(=O)c1cccc(C(F)(F)F)c1Cl` (stereo not drawn) [Example 24, Ethyl 5-(2-chloro-3-(trifluoromethyl)benzoyl)-1-(pyridin-2-yl)-4,5,6,7-tetrahydro-1H-imidazo[4,5-c]pyridine-4-carboxylate]: the concentration for half-maximal inhibition (IC50) in assay [1] (setting [4]) turned out to be 26.2 nM; in assay [3] (setting [5]), 23.3 nM. The “PBMC 1 μM (% control)” value in assay [2] is 2.9 % control.
For `CCOC(=O)C1c2ncn(-c3ccccc3)c2CCN1C(=O)c1cccc(C(F)(F)F)c1Cl` (stereo not drawn) [Example 26, Ethyl 5-(2-chloro-3-(trifluoromethyl)benzoyl)-1-phenyl-4,5,6,7-tetrahydro-1H-imidazo[4,5-c]pyridine-4-carboxylate], the 50% inhibitory concentration (IC50) came to 54.9 nM in assay [1] (setting [4]) and 7.7 nM in assay [3] (setting [5]). Further, the “PBMC 1 μM (% control)” value in assay [2] stood at 14.0 % control.
In the case of `CCOC(=O)C1c2ncn(-c3cnccn3)c2CCN1C(=O)c1cccc(C(F)(F)F)c1Cl` (stereo not drawn) [Example 28, Ethyl 5-{[2-chloro-3-(trifluoromethyl)phenyl]carbonyl}-1-pyrazin-2-yl-4,5,6,7-tetrahydro-1H-imidazo[4,5-c]pyridine-4-carboxylate], the half-maximal inhibitory concentration (IC50) in assay [1] (setting [4]) came to 36.2 nM; in assay [3] (setting [5]), 6.5 nM. The “PBMC 1 μM (% control)” value in assay [2] turned out to be 4.8 % control.
For `O=C(c1cccc(C(F)(F)F)c1Cl)N1CCc2c(nnn2-c2ccccc2)C1` [Example 61, 5-{[2-Chloro-3-(trifluoromethyl)phenyl]carbonyl}-1-phenyl-4,5,6,7-tetrahydro-1H-[1,2,3]triazolo[4,5-c]pyridine], in that order: 1870 nM, 2.7 nM and −0.1 % control.
As to `O=C(c1cccc(C(F)(F)F)c1F)N1CCc2c(nnn2-c2ncccn2)C1` [Example 66, 5-{[2-Fluoro-3-(trifluoromethyl)phenyl]carbonyl}-1-pyrimidin-2-yl-4,5,6,7-tetrahydro-1H-[1,2,3]triazolo[4,5-c]pyridine], the IC50 was 258 nM in assay [1] (setting [4]) and 22.4 nM in assay [3] (setting [5]). The “PBMC 10 μM (% control)” value in assay [2] (test compound 10 μM) stood at 2.7 % control.
As to `O=C(c1cccc(Cl)c1Cl)N1CCc2c(nnn2-c2ncccn2)C1` [Example 67, 5-[(2,3-Dichlorophenyl)carbonyl]-1-pyrimidin-2-yl-4,5,6,7-tetrahydro-1H-[1,2,3]triazolo[4,5-c]pyridine], the IC50 in assay [1] (setting [4]) was determined as 53 nM; in assay [3] (setting [5]) it was 2 nM. For the same compound, the “PBMC 10 μM (% control)” value in assay [2] (test compound 10 μM) was found to be 6.5 % control.
With `O=C(c1cccc(C(F)(F)F)c1Cl)N1CCc2c(nnn2-c2cc(F)ccn2)C1` [Example 131, (2-Chloro-3-(trifluoromethyl)phenyl)(1-(4-fluoropyridin-2-yl)-6,7-dihydro-1H-[1,2,3]triazolo[4,5-c]pyridin-5(4H)-yl)methanone], the IC50 was determined as 30.4 nM in assay [1] (setting [4]) and 2.1 nM in assay [3] (setting [5]). Besides, the “PBMC 10 μM (% control)” value in assay [2] (test compound 10 μM) amounted to 8.3 % control.
For `O=C(c1ccc(Cl)cc1F)N1CCc2c(nnn2-c2ncccn2)C1` [Example 280, (4-chloro-2-fluorophenyl)(1-(pyrimidin-2-yl)-6,7-dihydro-1H-[1,2,3]triazolo[4,5-c]pyridin-5(4H)-yl)methanone], in that order: 1350 nM, 255 nM and 3.4 % control.
Consider `Cc1c(C(=O)N2CCc3c(nnn3-c3ncccn3)C2)cccc1C(F)(F)F` [Example 281, (2-methyl-3-(trifluoromethyl)phenyl)(1-(pyrimidin-2-yl)-6,7-dihydro-1H-[1,2,3]triazolo[4,5-c]pyridin-5(4H)-yl)methanone], for which the results for the IC50 in assay [1] (setting [4]) and in assay [3] (setting [5]) were 349 nM and 2.2 nM, respectively. Also, the “PBMC 10 μM (% control)” value in assay [2] (test compound 10 μM) was −1.9 % control.
Taken in the same sequence, the figures for `Cc1cc(-n2nnc3c2CCN(C(=O)c2cc(C(F)(F)F)ccc2Cl)C3C)ncc1F` (stereo not drawn) [Example 352, (2-chloro-5-(trifluoromethyl)phenyl)(1-(5-fluoro-4-methylpyridin-2-yl)-4-methyl-6,7-dihydro-1H-[1,2,3]triazolo[4,5-c]pyridin-5(4H)-yl)methanone] were more than 10000 nM, more than 10000 nM and 98.2 % control.
For `Cc1cc(-n2nnc3c2CCN(C(=O)c2cc(Cl)cc(C(F)(F)F)c2)C3C)ncc1F` (stereo not drawn) [Example 361, (3-chloro-5-(trifluoromethyl)phenyl)(1-(5-fluoro-4-methylpyridin-2-yl)-4-methyl-6,7-dihydro-1H-[1,2,3]triazolo[4,5-c]pyridin-5(4H)-yl)methanone], in that order: more than 10000 nM, more than 10000 nM and 75.3 % control.
